From patent EP0923943A1, “MICELLAR AQUEOUS COMPOSITION AND METHOD FOR SOLUBILIZING HYDROPHOBIC DRUG” (TAISHO PHARMACEUTICAL CO. LTD, priority 1996, dated 1997)
Converted amounts (≈) assume the structure as drawn.

Assay: Saturation solubility of taxol
Assay type: physicochemical
Settings: pH 7.4, aqueous buffer

For `CC(=O)O[C@H]1C(=O)[C@@]2(C)[C@H]([C@H](OC(=O)c3ccccc3)[C@]3(O)C[C@H](OC(=O)[C@H](O)[C@@H](NC(=O)c4ccccc4)c4ccccc4)C(C)=C1C3(C)C)[C@]1(OC(C)=O)CO[C@@H]1C[C@@H]2O` [taxol], the solubility was 0.32 µg/mL (≈ 0.375 µM).
